We go through 23 molecules from ChEMBL document CHEMBL4811316, “Larvicidal activity and in silico studies of cinnamic acid derivatives against Aedes aegypti (Diptera: Culicidae)” (Bioorg Med Chem, 2021).

Series [1] is described as follows: Larvicidal activity against Aedes aegypti 4th instar larvae measured after 48 hrs. In kind it is ADME.
The nature of series [2]: Larvicidal activity against Aedes aegypti assessed as mortality at 100 ug/ml measured after 24 hrs relative to control. In kind it is ADME. The settings on record: at 100 µg/mL.
Series [3] can be described thus: Larvicidal activity against Aedes aegypti assessed as mortality at 45 ug/ml measured after 24 hrs relative to control. In kind it is ADME. Particulars: at 45 µg/mL.
Series [4] is described as follows: Drug recovery in Aedes aegypti supernatant measured after 24 hrs by HPLC analysis. In kind it is ADME.
Series [5] in a line: Retention time of the compound. In kind it is physicochemical.
A short description of series [6]: Drug recovery in Aedes aegypti larval extract by HPLC analysis. In kind it is ADME. The settings on record: 24 h.
Series [7] in a line: Toxicity in Aedes aegypti assessed as modifications in anal papillae at 50 ug/ml. Particulars: dose 50 µg/ml.
Series [8] in a line: Toxicity in Aedes aegypti assessed as appearance of dark spots in intestine region at 50 ug/ml. In kind it is tissue-based. Particulars: dose 50 µg/ml.
The nature of series [9]: Toxicity in Aedes aegypti assessed as appearance of dark spots in siphon region at 50 ug/ml. The settings on record: dose 50 µg/ml.
A short description of series [10]: Toxicity in Aedes aegypti assessed as appearance of dark spots in thorax region at 50 ug/ml. Particulars: dose 50 µg/ml.
Series [11] is described as follows: Toxicity in Aedes aegypti assessed as rigid and elongated exoskeleton at 50 ug/ml. Particulars: dose 50 µg/ml.
Series [12] can be described thus: Toxicity in Aedes aegypti assessed as reduction in body mass at 50 ug/ml. Particulars: dose 50 µg/ml.
Series [13] is described as follows: Toxicity in Aedes aegypti assessed as abdomen curvature at 50 ug/ml. Particulars: dose 50 µg/ml.
Series [14] is described as follows: Toxicity in Aedes aegypti assessed as translucent in anal papillae at 50 ug/ml. The settings on record: dose 50 µg/ml.

Structures are written as SMILES. In brackets after ≈: the same amount, converted by molar mass.

What is called LC50 is the concentration lethal to half of the exposed cells or organisms. Low readings indicate a more lethal substance, high ones a less lethal substance. In general, mortality refers to the percentage killed. Take `O=C(O)/C=C/c1ccc(C(F)(F)F)cc1`: in series [1], the LC10 worked out at 87.7 µg/mL (≈ 406 µM), the LC50 was determined as 97.6 µg/mL (≈ 452 µM) and the LC90 stood at 108.6 µg/mL (≈ 502 µM). In addition, the mortality in [2] was 56.7%. For the same molecule, in series [3], the mortality stood at 0%.

For the molecule `CCOC(=O)/C=C/C=C/c1ccccc1`, in series [1], the LC10 amounted to 10 µg/mL (≈ 49.4 µM), the LC50 was determined as 19.7 µg/mL (≈ 97.4 µM) and the LC90 turned out to be 38.8 µg/mL (≈ 192 µM). For the same molecule, in [3], the mortality is listed as 93.3%.

Turning to `CCOC(=O)/C=C/c1ccccc1` [ETHYL CINNAMATE], in series [1], the LC10 came to 30.4 µg/mL (≈ 173 µM), the LC50 was 35.6 µg/mL (≈ 202 µM) and the LC90 turned out to be 41.7 µg/mL (≈ 237 µM). For the same molecule, in series [3], the mortality is 95%.

For the molecule `CCOC(=O)/C=C/c1ccc(O)cc1` [ETHYL P-COUMARATE], the mortality in series [3] was determined as 0%.

In series [1], `O=C(O)/C=C/c1ccc([N+](=O)[O-])cc1` had an LC10 of 29 µg/mL (≈ 150 µM), a median lethal concentration (LC50) of 37.1 µg/mL (≈ 192 µM) and an LC90 of 47.5 µg/mL (≈ 246 µM). The mortality in series [2] was determined as 96.7%. Also, the mortality in series [3] is recorded as 86.7%.

Consider `O=C(O)/C=C/c1ccc(F)cc1`, for which the mortality in series [2] was 0%.

In the case of `O=C(O)/C=C/c1ccc(OC(F)(F)F)cc1`, in series [2], the mortality is listed as 40%.

On to `CCOC(=O)/C=C/c1ccc(OC)cc1` [4-METHOXY ETHYL CINNAMATE], for which, in series [1], the LC10 was 18.2 µg/mL (≈ 88.2 µM), the median lethal concentration (LC50) is 26.9 µg/mL (≈ 130 µM) and the LC90 was 39.7 µg/mL (≈ 192 µM). Further, the mortality in series [3] is recorded as 80%.

On to `O=C(O)/C=C/c1ccccc1` [CINNAMIC ACID], for which the mortality came out at 28.3% in series [2] and 0% in series [3].

As to `COP(=S)(OC)Oc1ccc(Sc2ccc(OP(=S)(OC)OC)cc2)cc1` [TEMEFOS], in series [1], the LC10 is 1.8 µg/mL (≈ 3.86 µM), the LC50 was found to be 4.4 µg/mL (≈ 9.43 µM) and the LC90 is 10.4 µg/mL (≈ 22.3 µM).

In series [1], `CCOC(=O)/C=C/c1ccc(Br)cc1` had an LC10 of 18.9 µg/mL (≈ 74.1 µM), an LC50 of 25.1 µg/mL (≈ 98.4 µM) and an LC90 of 33.3 µg/mL (≈ 131 µM). For the same molecule, the mortality in series [3] is recorded as 100%.

In series [1], `CCOC(=O)/C=C/c1ccc(OC(F)(F)F)cc1` had an LC10 of 19.6 µg/mL (≈ 75.3 µM), a median lethal concentration (LC50) of 31.3 µg/mL (≈ 120 µM) and an LC90 of 50 µg/mL (≈ 192 µM). Moreover, the mortality in series [3] turned out to be 93.3%.

Regarding `CCOC(=O)/C=C/c1ccc(C(C)(C)C)cc1`, in series [3], the mortality is 40%.

In [1], `CCOC(=O)/C=C/c1ccc(C(F)(F)F)cc1` registered an LC10 of 11.1 µg/mL (≈ 45.5 µM), an LC50 of 21.6 µg/mL (≈ 88.4 µM) and an LC90 of 42.2 µg/mL (≈ 173 µM). In addition, the mortality in series [3] is 98.3%.

On to `COc1ccc(/C=C/C(=O)O)cc1` [4-METHOXYCINNAMIC ACID], for which, in series [3], the mortality is recorded as 0%.

Regarding `CCOC(=O)/C=C/c1ccc(Cl)cc1Cl` [ETHYL 3-(2,4-DICHLOROPHENYL)ACRYLATE], in series [1], the LC10 came out at 10.2 µg/mL (≈ 41.6 µM), the LC50 was 23.6 µg/mL (≈ 96.3 µM) and the LC90 was 54.8 µg/mL (≈ 224 µM). For the same molecule, in series [3], the mortality came to 86.7%.

In series [4], `O=C(O)/C=C/c1ccc(Cl)cc1` returned a Drug recovery of 3.8191 µg/mL. In series [1], this molecule yielded an LC10 of 16.2 µg/mL (≈ 88.7 µM), a 50% lethal concentration (LC50) of 26 µg/mL (≈ 142 µM) and an LC90 of 41.8 µg/mL (≈ 229 µM). In addition, in [2], the mortality is listed as 100%. The molecule also registered a Retention_time in series [5] of 3.32 min. For the same molecule, the mortality in series [3] is 95%. The molecule further displayed a Drug recovery in series [6] of 2.7143 µg/mL.

On to `CCOC(=O)/C=C/c1ccc(F)cc1`, for which, in series [1], the LC10 amounted to 24 µg/mL (≈ 124 µM), the 50% lethal concentration (LC50) worked out at 32.2 µg/mL (≈ 166 µM) and the LC90 was found to be 43.2 µg/mL (≈ 222 µM). Besides, in series [3], the mortality is 83.3%.

Regarding `CCOC(=O)/C=C/c1ccc(N(C)C)cc1`, the mortality in [2] amounted to 6.7%.

With `CCOC(=O)/C=C/c1ccc(Cl)cc1` [ETHYL 3-(4-CHLOROPHENYL)ACRYLATE], the Activity entry in series [7], in series [8], in [9], in [10], in series [11] and in [12] was “Toxic” each time. In addition, the Activity entry in [13] and in series [14] was “Toxic” in each case. In addition, the Drug recovery in series [4] is 10.8746 µg/mL; in [6], 8.2531 µg/mL. The same molecule returned an LC10 in series [1] of 3.5 µg/mL (≈ 16.6 µM). The 50% lethal concentration (LC50) in series [1] stood at 8.3 µg/mL (≈ 39.4 µM). The LC90 in [1] was determined as 19.7 µg/mL (≈ 93.5 µM). In series [5], the Retention_time was 3.61 min. Moreover, the mortality in series [3] worked out at 100%.

In series [1], `CCOC(=O)/C=C/c1ccc([N+](=O)[O-])cc1` had an LC10 of 21.3 µg/mL (≈ 96.3 µM), an LC50 of 35.7 µg/mL (≈ 161 µM) and an LC90 of 60 µg/mL (≈ 271 µM). In addition, in series [3], the mortality was 98.3%.

In series [1], `O=C(O)/C=C/c1ccc(Br)cc1` gave an LC10 of 31.7 µg/mL (≈ 140 µM), an LC50 of 54.4 µg/mL (≈ 240 µM) and an LC90 of 93.2 µg/mL (≈ 410 µM). In series [2], the mortality is recorded as 93.3%. In series [3], the mortality turned out to be 36.7%.

Take `CCOC(=O)/C=C/c1ccc(C#N)cc1`: in [3], the mortality is 8.3%.
